Measured values published in the NIST ThermoML archive (doi:10.1016/j.jct.2005.10.009).

Tests used:
[1] = 101.33 kPa, Liquid; for speed of sound: Pulse-echo method; for mass density: Pycnometric method
[2] = molar heat capacity at constant pressure; conditions: 101 kPa, Liquid, Small sample (50 mg) DSC

CCCCCCCCCCO [decan-1-ol]
Conditions | mass density [kg/m3] | molar heat capacity at constant pressure [J/K/mol] | speed of sound [m/s]
[1], 293.1 K | – | – | 1397.2
[1], 293.15 K | 829.77 | – | –
[1], 298.07 K | – | – | 1380
[1], 298.15 K | 826.38 | – | –
[1], 303.04 K | – | – | 1362.8
[1], 303.15 K | 822.98 | – | –
[1], 308.04 K | – | – | 1345.8
[1], 308.15 K | 819.62 | – | –
[1], 313.01 K | – | – | 1329
[1], 313.15 K | 816.15 | – | –
[1], 318.15 K | 812.67 | – | –
[1], 318.18 K | – | – | 1311.7
[2], 290.91 K | – | 364.49 | –
[2], 291.15 K | – | 364.8 | –
[2], 292.15 K | – | 366.05 | –
[2], 293.15 K | – | 367.19 | –
[2], 294.15 K | – | 368.25 | –
[2], 295.15 K | – | 369.35 | –
[2], 296.15 K | – | 370.35 | –
[2], 297.15 K | – | 371.6 | –
[2], 298.15 K | – | 372.77 | –
[2], 299.15 K | – | 373.71 | –
[2], 300.15 K | – | 374.91 | –
[2], 301.15 K | – | 375.89 | –
[2], 302.15 K | – | 377.05 | –
[2], 303.15 K | – | 378.2 | –
[2], 304.15 K | – | 379.47 | –
[2], 305.15 K | – | 380.58 | –
[2], 306.15 K | – | 381.75 | –
[2], 307.15 K | – | 382.43 | –
[2], 308.15 K | – | 384.6 | –
[2], 309.15 K | – | 385.42 | –
[2], 310.15 K | – | 386.61 | –
[2], 311.15 K | – | 387.89 | –
[2], 312.15 K | – | 389.03 | –
[2], 313.15 K | – | 390.28 | –
[2], 314.15 K | – | 391.58 | –
[2], 315.15 K | – | 392.8 | –
[2], 316.15 K | – | 394.11 | –
[2], 317.15 K | – | 395.3 | –
[2], 318.15 K | – | 396.66 | –
[2], 318.39 K | – | 396.93 | –

CCCCCCC [heptane]
[1]
Conditions | mass density [kg/m3] | speed of sound [m/s]
293.13 K | – | 1151.9
293.15 K | 683.81 | –
298.12 K | – | 1130.3
298.15 K | 679.6 | –
303.1 K | – | 1108.8
303.15 K | 675.38 | –
308.07 K | – | 1087.5
308.15 K | 671.05 | –
313.03 K | – | 1066.3
313.15 K | 666.78 | –
318.15 K | 662.42 | –
318.33 K | – | 1043.9
